One series relates to Sphaerotheca fuliginea. Put plainly: Example L: in vivo test on Sphaerotheca fuliginea (powdery mildew on cucumber/protective). Conditions: Podosphaera fuliginea, 168 h, cucumber, protective, assessment 7 days after inoculation, read-out: % Wirkungsgrad. As for the experimental part:
Solvent: 49 parts by weight N,N-dimethylformamide Emulsifier: 1 part by weight alkylaryl polyglycol ethers For the preparation of a suitable active substance preparation, 1 part by weight of active substance is mixed with the stated quantities of solvent and emulsifier and the concentrate is diluted to the desired concentration with water. For the testing for protective activity, young cucumber plants are sprayed with the active substance preparation at the stated application dosage. One day after the treatment, the plants are inoculated with a spore suspension of Sphaerotheca fuliginea. Next, the plants are placed in a greenhouse at 70% relative atmospheric humidity and a temperature of 23° C. 7 days after the inoculation, the assessment takes place.

Another series relates to Alternaria solani. Put plainly: Example M: in vivo test on Alternaria solani (leaf blotch disease/tomato/protective). Conditions: 168 h, tomato, protective, 500 ppm active substance, assessed 7 days after inoculation, read-out: % Wirkungsgrad (activity level). As for the experimental part: Solvent: 49 parts by weight N,N-dimethylformamide Emulsifier: 1 part by weight alkylaryl polyglycol ethers For the preparation of a suitable active substance preparation, 1 part by weight of active substance is mixed with the stated quantities of solvent and emulsifier and the concentrate is diluted to the desired concentration with water. For the testing for protective activity, young tomato plants are sprayed with the active substance preparation at the stated application dosage. […] 7 days after the inoculation, the assessment takes place.

In another series the test system is Fusarium graminearum. Nature of the series: microbe, parasite or virus in culture. In kind it is cell-based.
Where [1] appears, read: LogPA (logP of the stated pure compound or, in a mixture, of the main isomer, 1-substituted 3-aryl-1H-pyrazole).
The mark [2] stands for this setting: 72 h, read-out: % Inhibition des Pilzwachstums bei 50 μM.
[3] abbreviates: 168 h, read-out: % Inhibition der DON/AcDON produktion bei 50 μM.

Read-outs that look alike come from different tables or passages of the source.

In general, chromatographic logP refers to lipophilicity estimated from chromatographic retention. Regarding `Cc1cc(-c2cn(C3CCCCO3)nc2-c2ccc(F)cc2)ccn1` (centres unmarked) [Compound 31], in the series with Sphaerotheca fuliginea, the pest or weed control at 500 ppm came out at 70%. Further, in the series “physchem” (setting [1]), the chromatographic logP worked out at 1.38.

For `CC(C)Cn1cc(-c2ccnc(NC(=O)CC3CC3)c2)c(-c2ccc(F)cc2)n1` [Compound 158], the pest or weed control at 500 ppm was 97% in the series with Sphaerotheca fuliginea and 94% in the series on Alternaria solani. In the series “physchem” (setting [1]), the chromatographic logP worked out at 3.03.

As to `CC(C)C(=O)Cn1cc(-c2ccncc2)c(-c2ccc(F)cc2)n1` [Compound 178], the pest or weed control at 500 ppm came to 75% in the series on Sphaerotheca fuliginea and 94% with Alternaria solani. The compound also gave a chromatographic logP in the series “physchem” (LogPA) of 1.37.

Consider `CC(C)OC(=O)Nc1cc(-c2cn(C(C)C)nc2-c2ccc(F)cc2)ccn1` [Compound 181], for which the pest or weed control at 500 ppm in the series with Sphaerotheca fuliginea was found to be 85%; in the series with Alternaria solani it was 94%. The chromatographic logP in “physchem” (LogPA) is 2.99.

Consider `CC(C)Cn1cc(-c2ccncc2-c2ccc(F)cc2)c(-c2ccc(F)cc2)n1` [Compound 228], for which the pest or weed control at 500 ppm with Sphaerotheca fuliginea was found to be 75%; in the series with Alternaria solani, 70%. Besides, in “physchem” (LogPA), the chromatographic logP was 2.96.

As to `CC(c1ccccc1F)n1cc(-c2ccnc(NC(=O)CC3CC3)c2)c(-c2ccc(F)cc2)n1` (centres unmarked) [Compound 250], the pest or weed control at 500 ppm with Sphaerotheca fuliginea was 84%; with Alternaria solani, 94%. Moreover, the chromatographic logP in “physchem” (LogPA) came to 3.54.

Consider `O=C(CC1CC1)Nc1cc(-c2cn(Cc3ccccc3F)nc2-c2ccc(F)cc2)ccn1` [Compound 253], for which the pest or weed control at 500 ppm came to 92% in the series on Sphaerotheca fuliginea and 94% in the series on Alternaria solani. Moreover, the chromatographic logP in “physchem” (LogPA) came to 3.17.

Consider `CC(C)C(=O)Nc1cc(-c2cn(Cc3ccccc3F)nc2-c2ccc(F)cc2)ccn1` [Compound 256], for which the pest or weed control at 500 ppm with Sphaerotheca fuliginea amounted to 92%; with Alternaria solani it was 94%. Further, the chromatographic logP in the series “physchem” (LogPA) was found to be 3.03.

Regarding `CC(C)C(=O)Nc1cc(-c2c(-c3ccc(F)cc3O)nn(C)c2OC(F)F)ccn1` [Compound 257], the inhibition at 50 µM with Fusarium graminearum (setting [2]) was 0%; with Fusarium graminearum (setting [3]), 94%. In the series on Alternaria solani, the pest or weed control at 500 ppm amounted to 94%. Besides, the chromatographic logP in the series “physchem” (LogPA) turned out to be 2.44.

For the compound `O=C(Nc1cc(-c2cn(Cc3ccccc3F)nc2-c2ccc(F)cc2)ccn1)C1CC1` [Compound 262], the inhibition at 50 µM with Fusarium graminearum (setting [2]) turned out to be 35%; in the series on Fusarium graminearum (setting [3]), 99%. Also, the pest or weed control at 500 ppm in the series with Alternaria solani amounted to 95%. Besides, in “physchem” (LogPA), the chromatographic logP was found to be 2.77.

As to `CCC(=O)Nc1cc(-c2cn(C(C(=O)OC)C(C)C)nc2-c2ccc(F)cc2)ccn1` (centres unmarked) [Compound 274], the pest or weed control at 500 ppm is 94% in the series on Sphaerotheca fuliginea and 95% in the series on Alternaria solani. Further, the chromatographic logP in the series “physchem” (LogPA) was determined as 2.67.

In the case of `CC(C)C(=O)Nc1cc(-c2cn(CC3OCCO3)nc2-c2ccc(F)cc2)ccn1` [Compound 276], the figures for the pest or weed control at 500 ppm in the series with Sphaerotheca fuliginea and in the series on Alternaria solani were 99% and 95%, respectively. In the series “physchem” (LogPA), the chromatographic logP was determined as 1.99.

As for `COC(=O)C(C(C)C)n1cc(-c2ccnc(NC(=O)C(C)C)c2)c(-c2ccc(F)cc2)n1` (centres unmarked) [Compound 277], the pest or weed control at 500 ppm is 94% with Sphaerotheca fuliginea and 100% with Alternaria solani. This compound also registered a chromatographic logP in “physchem” (LogPA) of 3.05.

As to `CCOCCn1cc(-c2ccnc(NC(=O)COC)c2)c(-c2ccc(F)cc2)n1` [Compound 327], the values for the inhibition at 50 µM in the series on Fusarium graminearum (setting [2]) and in the series with Fusarium graminearum (setting [3]) were 105% and 100%, respectively. Besides, the pest or weed control at 500 ppm in the series with Alternaria solani worked out at 95%. In the series “physchem” (LogPA), this compound gave a chromatographic logP of 2.38.

Consider `CCn1cc(-c2ccnc(NC(=O)CCCC(=O)OC)c2)c(-c2ccc(F)cc2)n1` [Compound 331], for which the pest or weed control at 500 ppm in the series on Sphaerotheca fuliginea amounted to 94%. This compound gave a chromatographic logP in “physchem” (LogPA) of 2.02.

As to `CCn1cc(-c2ccnc(NC(=O)c3snnc3C)c2)c(-c2ccc(F)cc2)n1` [Compound 335], the pest or weed control at 500 ppm in the series with Sphaerotheca fuliginea came to 74%. This compound also had a chromatographic logP in “physchem” (LogPA) of 2.72.

Consider `Cn1cc(-c2ccnc(NC(=O)c3ccccc3)c2)c(-c2ccc(F)cc2)n1` [Compound 346], for which the pest or weed control at 500 ppm in the series with Sphaerotheca fuliginea came to 95%. For the same compound, the chromatographic logP in “physchem” (LogPA) turned out to be 2.42.

Source of the values: patent publication US20110183978A1, “Phenylpyri(mi)dinylazoles” (Bayer CropScience AG, priority 2009, published 2011).
